# Measured values published in article PMC5330312, “Design and engineering of water-soluble light-harvesting protein maquettes” (Chemical Science, 2016).
# Legend:
# His-containing maquette = test: Absorption spectra of porphyrin with His-containing maquette; type: binding; settings: 4 μM porphyrin, 2 μM maquette
# From the text: (§1) The structural requirements for tetrapyrrole self-assembly in aqueous solution were first tested with Zn tetraphenyl porphyrins. The solubility in polar and non-polar environments was adjusted through combinations of hydrophobic and hydrophilic groups at the meso positions. Zn tetrapyrrole pigments discussed in this text are abbreviated with bold numbers, with full chemical names given in the Experimental section and structures illustrated in the figures. […] Thus, one non-polar edge of a Zn porphyrin was sufficient to provide facile binding.
# (§2) Blue, green and red spectra correspond to no maquette, His-free maquette or His-containing maquette, respectively. Panel (A) and (B) show spectra for 4 μM porphyrins (1) or (2) respectively with 2 μM maquette, when present.
# (§3) Protein solutions were prepared in CHES buffer (20 mM, 150 mM KCl, pH 9.0). Binding was monitored by UV/Vis Soret band absorbance on a Varian Cary-50 spectrophotometer at room temperature in a 1 cm path quartz cuvette. Secondary structure was monitored by CD spectroscopy (Aviv Model 410) at 25 °C with a 1 mm path quartz cuvette. Thermal denaturation was followed by monitoring the ellipticity at 222 nm every 5 °C after 15 minutes of equilibration. Melting temperatures were calculated using a Boltzmann equation with one term for each observed transition.
# [1] = system: His-free control maquette; test: Absorption spectra of porphyrin with His-free control maquette; type: binding; settings: 4 μM porphyrin, 2 μM maquette
# From the text: as §1, §2, §3
# [2] = biological target: His-containing four-helix maquette (histidines at positions 7 and 112); test: Cofactor binding titration into His maquette, UV/Vis spectra analysed by SVD; settings: for Kd: CHES buffer pH 9.0, 25 °C, SVD fit of spectral titration, read-out: Kd (dissociation constant for each His site); for comparative binding affinity, in words: maquette, Fig. 4
# From the text: To determine the acceptable range and pattern of hydrophobic vs. hydrophilic perimeters for Zn porphyrins, we synthesized all permutations of phenyl and carboxyphenyl tetra meso substituents (Fig. 3 and 4). The visible spectral changes that occurred as these porphyrins were titrated into a His maquette solution were fitted to a simple binding model with a single dissociation constant (K d) for each His site using singular value decomposition.[16] […] At least one hydrophobic and one hydrophilic group substitution is necessary for porphyrin ligating to the maquettes with nanomolar affinities.
# as §3
# Pigment stock solutions were weighed out and solubilized in dimethylsulfoxide to give concentrations of 1 mM Zn porphyrins, 1 mM chlorin (11), 500 μM chlorin (12), and 2 mM chlorin (13). Binding of Zn porphyrins shift the Soret peak from 422 nm to 432 nm. Binding of chlorins shift the Soret band from 415 nm to 423 nm for (12), 411 nm to 425 nm for (13), and 409 nm to 417 nm for (11). Dissociation constants (K d values) were determined as follows. To 1 ml of protein solution at 25 °C, 1 μl additions of 0.2 (porphyrin) or 0.1 (chlorin) equivalent aliquots were added successively to obtain a spectrum from 300 to 700 nm. At 1 equivalent of cofactor the DMSO concentration is 1%. Titrations typically ended at 4 equivalents of cofactor. […] The amplitudes of the first two principle components as a function of total pigment added fit well to a mathematical model of a single dissociation constant for each protein binding site to generate fit spectral extinction coefficients at each wavelength for the unbound and bound pigment spectra as well as values and error estimates for the dissociation constants.
# [3] = Water solubility of the tetrapyrrole (qualitative); type: physicochemical
# protein maquette = test: Stopped-flow mixing of tetrapyrrole and maquette (binding kinetics); settings: for binding speed, in words: stopped-flow mixing
# Experimental: Tetrapyrrole and protein were added to separate syringes of an OLIS RSM 1000 stopped flow spectrophotometer, which takes a full visible spectrum every millisecond through a 2 cm flow cell after rapid (∼2 ms deadtime) mixing. Temperature was controlled with a Fischer-Scientific IsoTemp 3031 water bath. Individual wavelengths were selected for further kinetic analysis. All experiments were performed in triplicate, and the data were averaged together for further analysis.
# Title: Design and engineering of water -soluble light-harvesting protein maquettes Goutham Kodali, Joshua A. Mancini, Lee A. Solomon, Tatiana Esipova, Nicholas Roach, Christopher J. Hobbs, Pawel Wagner, Olga A. Mass, Kunche Aravindu, Jonathan E. Barnsley, Keith C. Gordon, David L. Officer, P. Leslie Dutton and Christopher C. Moser*
# Figure S1: Proliferating carbox ylic groups on the 15- porph yrin substituent leads to faster […]
# Conditions: 2 µ M of protein maquette in 20 mM CHES, 150 mM KCl mixed with one equivalent of porphyrin, either 5- phen yl-15-carbox y phen ylporph yrin [9] (red) or 5- phen yl -15- Newkome phen ylporphyrin [10] (green).
# Normalized absorbance i ncreas e with time in seco nds.
# maquette = test: Thermal denaturation of maquette by circular dichroism at 222 nm; settings: 2 μM maquette with 2 equivalents of cofactor
# Experimental: Fig. 7 Thermal stability of the maquette increased upon tetrapyrrole binding. Circular dichroism at 222 nm monitors alpha helical folding for 2 μM maquette without (blue) or with (red) 2 equivalents of (11) as a function of temperature.
# as §3
compound,measurement,setting,value
"O=S(=O)([O-])c1ccc(-c2c3nc(c(-c4ccc(S(=O)(=O)[O-])cc4)c4ccc([n-]4)c(-c4ccc(S(=O)(=O)[O-])cc4)c4nc(c(-c5ccccc5)c5ccc2[n-]5)C=C4)C=C3)cc1.O=S(=O)([O-])c1ccc(-c2c3nc(c(-c4ccc(S(=O)(=O)[O-])cc4)c4ccc([n-]4)c(-c4ccc(S(=O)(=O)[O-])cc4)c4nc(c(-c5ccccc5)c5ccc2[n-]5)C=C4)C=C3)cc1.[Zn+2].[Zn+2].[Zn+2].[Zn+2].[Zn+2] [compound 2, Zn(II) 5,10,15-tri(4-sulphonatophenyl)-5-phenylporphyrin]",association with His-containing maquette (Soret spectral change),His-containing maquette,indicative of histidine ligation
same,association with His-free maquette (Soret spectral change),[1],partial association of the tetrapyrrole with the maquette
Zn(II) 5-phenyl-15-(p-carboxyphenyl)porphyrin with first generation Newkome dendrimer [compound 10],Kd,[2]; His maquette,250 ± 47 nM
same,"water solubility, in words",[3],substantially increased the water solubility
same,"binding speed, in words",protein maquette,few ms timescale
"C1=Cc2nc1c(-c1ccccc1)c1ccc([n-]1)c(-c1ccccc1)c1nc(c(-c3ccccc3)c3ccc([n-]3)c2-c2ccccc2)C=C1.[Zn+2] [compound 3, Zn(II) 5,10,15,20-tetraphenylporphyrin, reference compound]","comparative binding affinity, in words",[2],too weak to measure accurately
"O=C(O)c1ccc(-c2c3nc(c(-c4ccccc4)c4ccc([n-]4)c(-c4ccccc4)c4nc(c(-c5ccccc5)c5ccc2[n-]5)C=C4)C=C3)cc1.[Zn+2] [compound 4, Zn(II) 5-4-(carboxyphenyl)-10,15,20-triphenylporphyrin]","affinity relative to (5), (6) and (7)","[2]; His maquette, estimated",about two orders of magnitude tighter
"CC1(C)Cc2nc1cc1cc(C#Cc3ccccc3)c(cc3nc(cc4ccc([n-]4)c2-c2ccc(C(=O)O)cc2)C=C3)[n-]1.[Zn+2] [compound 12, Zn(II) 15-(4-carboxyphenyl)-17,18-dihydro-18,18-dimethyl-3-(phenylethynyl)porphyrin]",lowering of affinity relative to (11),"[2]; His maquette, Kd of (12) vs (11)",4.5 fold
"O=C(O)c1ccc(-c2c3nc(c(-c4ccc(C(=O)O)cc4)c4ccc([n-]4)c(-c4ccc(C(=O)O)cc4)c4nc(c(-c5ccc(C(=O)O)cc5)c5ccc2[n-]5)C=C4)C=C3)cc1.[Zn+2] [compound 8, Zn(II) 5,10,15,20-tetra(4-carboxyphenyl)porphyrin]","comparative binding affinity, in words",[2],too weak to measure accurately
"O=S(=O)([O-])c1ccc(-c2c3nc(c(-c4ccc(S(=O)(=O)[O-])cc4)c4ccc([n-]4)c(-c4ccc(S(=O)(=O)[O-])cc4)c4nc(c(-c5ccc(S(=O)(=O)[O-])cc5)c5ccc2[n-]5)C=C4)C=C3)cc1.[Zn+2].[Zn+2].[Zn+2] [compound 1, Zn(II) 5,10,15,20-tetra(4-sulphonatophenyl)porphyrin]",association with His-containing maquette (Soret spectral change),His-containing maquette,does not associate with either maquette
same,association with His-free maquette (Soret spectral change),[1],does not associate with either maquette
same,"water solubility, in words",[3],highly water-soluble
"O=C(O)c1ccc(-c2c3nc(cc4ccc([n-]4)c(-c4ccccc4)c4nc(cc5ccc2[n-]5)C=C4)C=C3)cc1.[Zn+2] [compound 9, Zn(II) 5-phenyl-15-(p-carboxyphenyl)porphyrin]",time for binding equilibrium to reach completion,"protein maquette; stopped flow, 2 µM maquette, one equivalent of porphyrin, 20 mM CHES, 150 mM KCl",20 min
"C=Cc1c(C)c2[n]3c1=CC1=[N+]4C(=Cc5c(C)c6c7[n]5[Zn-2]34[N+]3=C(C=2)[C@@H](C)[C@H](CCC(=O)O)C3=C7[C@@H](C(=O)OC)C6=O)C(CC)=C1C (stereo partly drawn) [compound 13, Zn pheophorbide a]",Kd,[2]; His maquette,4 ± 3 nM
"Cc1ccc(-c2c3nc(cc4ccc([nH]4)c(-c4ccc(C(=O)O)cc4)c4nc(cc5ccc2[nH]5)C(C)(C)C4)C=C3)cc1 [compound 11, 15-(4-carboxyphenyl)-17,18-dihydro-18,18-dimethyl-5-p-tolylporphyrin]",Kd,[2]; His maquette,80 ± 10 nM
same,"binding speed, in words",protein maquette,binds much faster than the similarly substituted porphyrin (9)
same,structure stabilization corresponding to the Tm shift,maquette,6.8 kcal mol^–1
same,thermal mid point transition of α-helical structure (Tm) upon chlorin binding,maquette; 46 °C without cofactor,61 °C
